From PubChem BioAssay AID256 (DTP/NCI, 2004) come the findings set out here.

This test relates to CD2F1 mice, L1210 leukemia ip, survival T/C. Description: NCI In Vivo Anticancer Drug Screen. Data for tumor model L1210 Leukemia (intraperitoneal) in CD2F1 (CDF1) mice. The note with it: endpoint: mean survival time, higher = longer survival. A digest of the protocol: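 Read-out first: treated-group measurement over vehicle-control measurement, expressed as a ratio. Animals bore a transplanted tumor line and were dosed with compound or vehicle.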

[1] abbreviates: dose: 12.5 mg/kg/injection, schedule: Q01DX005 (ip), vehicle: distilled water + Tween-80.
Setting [2] is: dose: 25.0 mg/kg/injection, schedule: Q01DX005 (ip), vehicle: distilled water + Tween-80.
Setting [3] is: dose: 50.0 mg/kg/injection, schedule: Q01DX005 (ip), vehicle: distilled water + Tween-80.
The mark [4] stands for this setting: dose: 100.0 mg/kg/injection, schedule: Q01DX005 (ip), vehicle: distilled water + Tween-80.
Setting [5] is: dose: 200.0 mg/kg/injection, schedule: Q01DX005 (ip), vehicle: distilled water + Tween-80.
[6] abbreviates: dose: 100.0 mg/kg/injection, schedule: Q01DX009 (ip), vehicle: saline with Tween-80.
The mark [7] stands for this setting: dose: 200.0 mg/kg/injection, schedule: Q01DX009 (ip), vehicle: saline with Tween-80.
[8] abbreviates: dose: 100.0 mg/kg/injection, schedule: Q01DX001 (ip), vehicle: saline with Tween-80.
Setting [9] is: dose: 200.0 mg/kg/injection, schedule: Q01DX001 (ip), vehicle: saline with Tween-80.
[10] abbreviates: dose: 100.0 mg/kg/injection, schedule: Q04DX003 (ip), vehicle: saline with Tween-80.
Setting [11] is: dose: 200.0 mg/kg/injection, schedule: Q04DX003 (ip), vehicle: saline with Tween-80.
[12] abbreviates: dose: 400.0 mg/kg/injection, schedule: Q04DX003 (ip), vehicle: saline with Tween-80.
Where [13] appears, read: dose: 18.0 mg/kg/injection, schedule: Q01DX009 (ip), vehicle: saline.
Where [14] appears, read: dose: 25.0 mg/kg/injection, schedule: Q04DX002 (ip), vehicle: saline with Tween-80.
Where [15] appears, read: dose: 50.0 mg/kg/injection, schedule: Q04DX002 (ip), vehicle: saline with Tween-80.
Setting [16] is: dose: 100.0 mg/kg/injection, schedule: Q04DX002 (ip), vehicle: saline with Tween-80.
[17] abbreviates: dose: 400.0 mg/kg/injection, schedule: Q01DX001 (ip), vehicle: saline with Tween-80.
Where [18] appears, read: dose: 400.0 mg/kg/injection, schedule: Q01DX009 (ip), vehicle: saline with Tween-80.
The mark [19] stands for this setting: dose: 10.0 mg/kg/injection, schedule: Q01DX009 (ip), vehicle: saline.

SMILES strings stand for the structures. Values joined by “and” are separate entries in the source; they are usually repeats but may differ in a detail not shown here. Equal values may be shown once. Inconclusive results and toxic doses are left out.

On to `COc1ccc(Nc2ncnc3c2ncn3C2OC(CO)C(O)C2O)cc1` (stereo unspecified), for which the T/C runs as follows: (dose: 6.25 mg/kg/injection, schedule: Q01DX005 (ip), vehicle: distilled water + Tween-80) 101 % of control; under setting [1], 102 % of control and 96 % of control; under setting [2], 104 % of control and 96 % of control; under setting [3], 91 % of control; under setting [4], 102 % of control; under setting [5], 100 % of control.

Turning to `O=C(O)Cn1nnc2ccccc21`, the T/C is, setting by setting: (dose: 25.0 mg/kg/injection, schedule: Q01DX009 (ip), vehicle: saline with Tween-80) 100 % of control; (dose: 25.0 mg/kg/injection, schedule: Q01DX009 (ip), vehicle: saline) 102 % of control; (dose: 50.0 mg/kg/injection, schedule: Q01DX009 (ip), vehicle: saline with Tween-80) 97 % of control; (dose: 50.0 mg/kg/injection, schedule: Q01DX009 (ip), vehicle: saline) 102 % of control; under setting [6], 97 % of control; (dose: 100.0 mg/kg/injection, schedule: Q01DX009 (ip), vehicle: saline) 98 % of control. Further, the T/C is 100 % of control under setting [7] and 100 % of control (dose: 200.0 mg/kg/injection, schedule: Q01DX009 (ip), vehicle: saline).

Consider `CCOc1ccc(-n2c(O)c(N=Nc3ccccc3OC)c(=O)n(-c3ccccc3)c2=S)cc1`, for which the T/C under setting [8] is 93 % of control and the T/C under setting [9] is 91 % of control.

Consider `CCOC(=O)N1C2CCC(C2)N1C(=O)OCC`, for which the T/C under setting [10] is 100 % of control, the T/C under setting [11] was 100 % of control and the T/C under setting [12] is 87 % of control.

As to `C[n+]1cccc(NC(=O)c2ccc(NC(=O)c3ccc(C(=O)Nc4ccc(NC(=N)N)cc4)cc3)cc2)c1`, the T/C is 173 % of control (dose: 1.3 mg/kg/injection, schedule: Q01DX009 (ip), vehicle: saline); 307 % of control (dose: 2.0 mg/kg/injection, schedule: Q01DX009 (ip), vehicle: saline); 259 % of control (dose: 3.0 mg/kg/injection, schedule: Q01DX009 (ip), vehicle: saline); 115 % of control (dose: 8.0 mg/kg/injection, schedule: Q01DX009 (ip), vehicle: saline); 112 % of control (dose: 12.0 mg/kg/injection, schedule: Q01DX009 (ip), vehicle: saline); 97 % of control under setting [13].

As to `Cc1ccc(S/C=C/C(=O)Nc2ccccc2)cc1`, the T/C under setting [14] was 101 % of control; the T/C under setting [15] is 94 % of control; the T/C under setting [8] is 97 % of control; the T/C under setting [16] was 101 % of control; the T/C under setting [10] is 87 % of control; the T/C under setting [9] is 105 % of control. Besides, the T/C under setting [17] was 94 % of control.

Turning to `CCCCNCCO`, the T/C (dose: 100.0 mg/kg/injection, schedule: Q01DX001 (ip), vehicle: saline) was 104 % of control.

As to `O=C1c2ccccc2C(=O)N1CCCCCBr`, the T/C runs as follows: under setting [6], 96 % of control; under setting [10], 103 % of control; under setting [7], 96 % of control; under setting [11], 91 % of control; under setting [18], 94 % of control; under setting [12], 100 % of control.

In the case of `O=C(O)c1nn2c(=O)c3cccc4cccc(c43)c2c1C(=O)O`, the T/C reads like this: under setting [14], 95 % of control; under setting [15], 98 % of control; under setting [16], 95 % of control; (dose: 200.0 mg/kg/injection, schedule: Q04DX002 (ip), vehicle: saline with Tween-80) 95 % of control.

In the case of `Nc1c(Cl)cccc1C(=O)c1ccccc1C(=O)O`, the T/C by setting is: under setting [6], 97 % of control; under setting [10], 101 % of control; under setting [7], 95 % of control; under setting [11], 101 % of control; under setting [18], 101 % of control; under setting [12], 103 % of control.

Regarding `C[P+](CP(=O)(c1ccccc1)c1ccccc1)(c1ccccc1)c1ccccc1`, the T/C runs as follows: under setting [14], 107 % of control; under setting [15], 92 % of control; under setting [16], 96 % of control.

`CCCCCC(O)/C=C/Sc1n[nH]c(=O)[nH]c1=O` (stereo unspecified): the T/C under setting [1] was 104 % of control; the T/C under setting [2] is 94 % of control; the T/C under setting [3] is 98 % of control; the T/C under setting [4] is 90 % of control; the T/C under setting [5] was 93 % of control.

On to `CCOC(=O)C1=C(N)CCCC1`, for which the T/C runs as follows: (dose: 100.0 mg/kg/injection, schedule: Q01DX001 (ip), vehicle: Klucel (hydroxypropylcellulose) (HPC)) 96 % of control; (dose: 200.0 mg/kg/injection, schedule: Q01DX001 (ip), vehicle: Klucel (hydroxypropylcellulose) (HPC)) 122 % of control; (dose: 400.0 mg/kg/injection, schedule: Q01DX001 (ip), vehicle: Klucel (hydroxypropylcellulose) (HPC)) 96 % of control.

Consider `C[N+](C)(C)Cc1ccccc1/C(=N\O)c1ccccc1`, for which the T/C by setting is: (dose: 5.0 mg/kg/injection, schedule: Q01DX009 (ip), vehicle: saline) 109 % of control; (dose: 5.0 mg/kg/injection, schedule: Q04DX003 (ip), vehicle: saline) 116 % of control; under setting [19], 100 % of control; (dose: 10.0 mg/kg/injection, schedule: Q04DX003 (ip), vehicle: saline) 98 % of control; (dose: 20.0 mg/kg/injection, schedule: Q01DX009 (ip), vehicle: saline) 91 % of control; (dose: 20.0 mg/kg/injection, schedule: Q04DX003 (ip), vehicle: saline) 89 % of control.

As to `COc1cc(C=Nc2cc(Cl)c(O)c(Cl)c2)ccc1N(CCCl)CCCl`, the T/C runs as follows: (dose: 12.5 mg/kg/injection, schedule: Q01DX001 (ip), vehicle: carboxymethylcellulose (CMC)) 120 % of control; (dose: 25.0 mg/kg/injection, schedule: Q01DX001 (ip), vehicle: carboxymethylcellulose (CMC)) 155 % of control.

For `Cc1ccnc([N+](=O)[O-])c1`, the T/C is, setting by setting: under setting [10], 102 % of control; under setting [11], 96 % of control; under setting [12], 97 % of control.

Take `CCOC(=O)c1cnc(SCc2ccccc2)[nH]c1=O`: the T/C under setting [10] is 107 % of control, the T/C under setting [11] is 110 % of control and the T/C under setting [12] was 102 % of control.

For the molecule `Cc1cc(N(CCCl)CCCl)c(C)cc1NC(=O)c1ccccc1`, the T/C runs as follows: (dose: 4.0 mg/kg/injection, schedule: Q01DX009 (ip), vehicle: saline) 106 % of control; (dose: 6.0 mg/kg/injection, schedule: Q01DX009 (ip), vehicle: saline) 115 % of control; under setting [19], 113 % of control; under setting [13], 121 % of control; (dose: 30.0 mg/kg/injection, schedule: Q01DX009 (ip), vehicle: saline) 124 % of control.

For the molecule `CN(Cc1cnc2nc(N)nc(N)c2n1)c1ccc(C(=O)NC(CCC(=O)NC(CCC(=O)NC(CCC(=O)NC(CCC(=O)O)C(=O)O)C(=O)O)C(=O)O)C(=O)O)cc1` (stereo unspecified), the T/C is 102 % of control (dose: 0.5 mg/kg/injection, schedule: Q01DX005 (ip), vehicle: sodium bicarbonate); 114 % of control and 111 % of control (dose: 1.0 mg/kg/injection, schedule: Q01DX005 (ip), vehicle: sodium bicarbonate); 118 % of control (dose: 2.0 mg/kg/injection, schedule: Q01DX005 (ip), vehicle: sodium bicarbonate).

For the molecule `O=CC(O)C(Cl)C(Cl)C(O)CCl` (stereo unspecified), the T/C was 115 % of control (dose: 100.0 mg/kg/injection, schedule: Q04DX003 (ip), vehicle: saline); 100 % of control (dose: 200.0 mg/kg/injection, schedule: Q04DX003 (ip), vehicle: saline); 98 % of control (dose: 400.0 mg/kg/injection, schedule: Q04DX003 (ip), vehicle: saline).

On to `CSc1nc2cc(C)c(C)cc2[nH]1`, for which the T/C by setting is: under setting [8], 103 % of control; under setting [6], 97 % of control; under setting [9], 97 % of control; under setting [7], 97 % of control; under setting [17], 105 % of control; under setting [18], 94 % of control.

For the molecule `O=C(O)c1ccccc1C(=O)OCC(c1ccccc1)c1ccccc1`, the T/C is 97 % of control under setting [10] and 89 % of control under setting [11].

For the molecule `CCOC(=O)NS(=O)(=O)Nc1ccccc1`, the T/C runs as follows: under setting [6], 104 % of control; under setting [7], 102 % of control; under setting [18], 96 % of control.
